Measured values published in patent publication US20250052985A1, “SYSTEM AND METHOD FOR QUANTITATIVE PHASE IMAGING FOR MULTI-PARAMETRIC SCREENING OF TUMOR THERAPY RESPONSE” (UNIVERSITY OF UTAH RESEARCH FOUNDATION, priority 2023, published 2025).
Several values for one entry are separate records, joined by “and”; a condition that tells them apart may be missing. Identical values can stand only once. Like-named read-outs stand apart in the source and are kept apart here.

How the values were obtained:
Assay type in all cases: cell-based
[1] = tested on: BT-474 cells; experiment: CellTiter-Glo (CTG) ATP viability assay, BT-474; details: for Min Asymptote: BT-474, Hill fit of luminescence normalized to solvent control, one line per replicate; for DoR CTG: depth of response
Experimental: CTG (e.g., read by the CTG reader 115) is a cell viability assay that quantifies the amount of ATP present at the end of an experiment as an indicator of the number of live cells. The electronic controller 155 measures ATP content in each condition as a readout by a luminescent signal, which is normalized by the luminescence of the control (e.g., a control well) to determine cell viability relative to on-plate controls. In some embodiments, the CTG assay is performed by first removing 100 μL of media from each well on the well-plate 105, which is then replaced with an equal amount of CellTiter-Glo reagent (e.g., Promega, G7572). Assayed plates may be shaken at 500 RPM for 20 minutes and allowed to rest for 10 minutes. In some instances, 100 μL of volume from each well is transferred to a white 96-well plate (e.g., Perkin Elmer, 6005680). The electronic controller 155 collects luminescence data from each well using an Envision plate reader (e.g., Perkin Elmer) and normalized against the solvent control to measure ATP content. The electronic controller 155 fits a 4-parameter hill curve to the dose response to determine the EC50 and depth of response.

[2] = tested on: HCI-037 PDxO cells; experiment: QPI on cells from patient-derived organoid HCI-037 (primary lesion); details: HCI-037, 48 h imaging, 3-parameter Hill model
Experimental: (§1) In some embodiments, the QPI microscope system 110 performs QPI on cells from patient-derived organoids and direct-from-patient samples. For example, the electronic controller 155 analyzes data on cells from a set of 5 organoids representing samples collected from two patients, as illustrated by a workflow 3400 in FIG. 24. The workflow 3400 is an experiment workflow illustrating how assays are analyzed by the QPI microscope system 110. In some embodiments, the QPI microscope system 110 images cells for 48 h, and uses an automatic segmentation algorithm, via the electronic controller 155, to identify individual cells from background, as shown in images 3405 and 3410 of FIG. 24. […] The electronic controller 155 determines the mass of each cell by summing the cell mass over the segmented area. In some embodiments, plots of mass over time reveal single cell growth rates, as shown by graph 3415 of FIG. 24. The graph 3415 is a mass vs. time plot showing DMSO treated cells growing cells at a typical location. Cells outlined in green are shown as green on the plot, other growing cells are shown in purple. The electronic controller 155 determine the specific growth rate (SGR) by fitting a line to time-series mass measurements and normalizing by an initial mass predicted by the fit to account for the effect of cell size on growth rate. The electronic controller 155 fits SGR as a function of dose to a sigmoidal dose response curve using a 3-parameter Hill model to extract dose response measurements, as shown by graph 3420 of FIG. 24. […] In some embodiments, EC50 measured by the QPI microscope system 110 is strongly concordant with gold standard techniques such as CTG over 27 conditions (e.g., 9 compounds, 3 breast cancer cell lines). […] As with cell line data, QPI data on cells from PDxO resolves differences in temporal dynamics of response to therapy, as shown in graph 3425 of FIG. 24. […] In some embodiments, the electronic controller 155 is configured to determine a drug response of each of the plurality of treatment samples from patient derived organoids.
The graphs 3500 includes graph A of the graphs 3500 showing normalized mass vs. time for HCI-037 (primary), HCI-038 (metastatic), and HCI-039 (pleural effusion) showing reduction in growth as concentration increases. Graphs B, C, D, and E of the graphs 3500 show dose response plots showing the differential response between different disease models. Graphs F, G, H, and I of the graphs 3500 show Hellinger distance vs. time plots showing the time of response for the different models treated with various therapies. In some embodiments, HCI-037, HCI-038, and HCI-039, PDxO models are used that are derived from primary lesion, bone metastasis, and pleural effusion, respectively, at different time points from a single patient during the course of treatment and progressive disease. In some embodiments, the electronic controller 155 is configured to determine a difference drug response from patient derived organoids. In some embodiments, the patient derived organoids are tumor organoids.

[3] = tested on: HCI-038 PDxO cells; experiment: QPI on cells from patient-derived organoid HCI-038 (bone metastasis); details: HCI-038, bone metastasis
Experimental: In some embodiments, the QPI microscope system 110 performs QPI on cells from patient-derived organoids and direct-from-patient samples. For example, the electronic controller 155 analyzes data on cells from a set of 5 organoids representing samples collected from two patients, as illustrated by a workflow 3400 in FIG. 24. The workflow 3400 is an experiment workflow illustrating how assays are analyzed by the QPI microscope system 110. In some embodiments, the QPI microscope system 110 images cells for 48 h, and uses an automatic segmentation algorithm, via the electronic controller 155, to identify individual cells from background, as shown in images 3405 and 3410 of FIG. 24. […] The electronic controller 155 determines the mass of each cell by summing the cell mass over the segmented area. In some embodiments, plots of mass over time reveal single cell growth rates, as shown by graph 3415 of FIG. 24. The graph 3415 is a mass vs. time plot showing DMSO treated cells growing cells at a typical location. Cells outlined in green are shown as green on the plot, other growing cells are shown in purple. […] In some embodiments, EC50 measured by the QPI microscope system 110 is strongly concordant with gold standard techniques such as CTG over 27 conditions (e.g., 9 compounds, 3 breast cancer cell lines). […]

[4] = tested on: HCI-039 PDxO cells; experiment: QPI on cells from patient-derived organoid HCI-039 (pleural effusion); details: HCI-039, pleural effusion
Experimental: as §1, with “organoids. […]” for “organoids.”

[5] = tested on: primary tumor cells (Patient #1); experiment: QPI on primary cells after two-week expansion, Patient #1; details: Patient #1
Experimental: In some embodiments, the QPI microscope system 110 applies multiparametric QPI to primary cells from two clinical samples stored in cell bank at, for example, the Huntsman Cancer Institute plated after thawing from liquid nitrogen and CD45+ depleted to reduce the number of immune cells, as shown in FIG. 26.
For example, the primary cells are plated as a 2D monolayer in Clever's complete medium in a 96 well plate (e.g., the well-plate 105) and are allowed to acclimate to cell culture conditions for 18 h prior to dosing with treatments assigned to each patient by a physician. […] The image 3600 is a QPI image of primary cells from a direct from thaw patient derived sample. […] The graph 3610 is a histogram of cell mass used to computationally filter, using the electronic controller 155, for low mass cells (shown in red in the image 3600 and the graph 3605). By using a cutoff between the peaks at, for example, 72 pg, low mass cells can be isolated that are not growing and remove such cells from analysis. […] Using this cutoff, the electronic controller 155 measures the dose response for cells in each condition to determine the EC50 and DoR for each condition studied for the primary cells, as shown in the graph 3615. The graph 3615 is a dose response plot for primary cells treated with therapies assigned to the patient by a physician. […] In some embodiments, the electronic controller 155 determines a drug response in cells from patient derived samples. For example, the electronic controller 155 determines the drug response in therapy treatment samples from patient derived samples.
In some embodiments, both samples are expanded from primary cells in 2D culture using optimized ex vivo culture conditions for 2 weeks, changing media every 3 days to further purify the tumor cells, as shown in a workflow 3700 of FIG. 27.

[6] = BT-474 cell line, CellTiter-Glo
[7] = Homo sapiens, BT-474, 24 h, 24 h CTG, BT-474, Hill fit, read-out: log10(EC50) (converted)
[8] = Homo sapiens, BT-474, BT-474 cell line, CellTiter-Glo, read-out: EC50, CTG
[9] = Homo sapiens, BT-474, 72 h, 72 h CTG, BT-474, Hill fit, read-out: log10(EC50) (converted)

Row | EC50 [1, 7] [µM] | EC50 [1, 8] [µM] | log10(EC50) ([1]; 72 h CTG, BT-474, Hill fit) | EC50 [1, 9] [µM] | EC50 compared with eribulin [5] | Structure (SMILES) | Hill Slope ([1]; 24 h CTG, BT-474, Hill fit) | Min Asymptote ([1]; 24 h CTG) | Hill Slope ([1]; 72 h CTG, BT-474, Hill fit) | Min Asymptote ([1]; 72 h CTG) | DoR CTG [1, 6] | log10(EC50) ([1]; 24 h CTG, BT-474, Hill fit) | EC50 ([1]; BT-474 cell line, CellTiter-Glo, read-out: EC50, CTG) [µM] | dose response (SGR vs dose) [2] | response compared with primary lesion model [3] | response compared with primary lesion model [4]
1 | 14.2 |  |  |  |  | CC(=O)c1c(C)c2cnc(Nc3ccc(N4CCNCC4)cn3)nc2n(C2CCCC2)c1=O [Palbociclib] | 6.945 | 0.2202 | 5.467 and 7.802 | 0.01628 and 0.01895 | 0.9 |  |  |  |  | 
2 | 10.9 | 0.1 | 0.7667 |  |  | O=c1[nH]cc(F)c(=O)[nH]1 [5FU, 5-Fluorouracil] | 0.5388 | 0.925 | 1.185 and 1.042 | 0.938 (2×) and 0.9222 | 0.1 |  |  |  |  | 
3 | 1.83 | 6.4 |  | 0.00766 |  | CC[C@]1(O)C[C@@H]2CN(CCc3c([nH]c4ccccc34)[C@@](C(=O)OC)(c3cc4c(cc3OC)N(C)[C@H]3[C@@](O)(C(=O)OC)[C@H](OC(C)=O)[C@]5(CC)C=CCN6CC[C@]43[C@@H]65)C2)C1 [Vinblastine] | 0.3445 | 0.5659 | 0.1 | 0.06356 | 1.0 |  |  | lesser response | stronger response | stronger response
4 |  | 0.4 | 0.3455 | 0.434 | lower EC50 than eribulin | COc1cccc2c1C(=O)c1c(O)c3c(c(O)c1C2=O)C[C@@](O)(C(=O)CO)C[C@@H]3O[C@H]1C[C@H](N)[C@H](O)[C@H](C)O1 [Doxorubicin] |  |  | 8.999 and 8.652 | 0.5407 (2×) and 0.5602 | 0.5 |  |  | strong response |  | 
5 | 0.0137 |  | 2.403 | 0.00334 |  | CC(=O)O[C@@]12CO[C@@H]1C[C@H](O)[C@@]1(C)C(=O)[C@H](O)C3=C(C)[C@@H](OC(=O)[C@H](O)[C@@H](NC(=O)OC(C)(C)C)c4ccccc4)C[C@@](O)([C@@H](OC(=O)c4ccccc4)[C@H]21)C3(C)C [Docetaxel] | 7.175 | 0.8491 | 7.938 and 5.667 | 0.2805 and 0.3348 | 0.6 |  |  |  |  | 

Row | Structure (SMILES) | EC50 [1, 7] [µM] | EC50 [1, 8] [µM] | log10(EC50) ([1]; 72 h CTG, BT-474, Hill fit) | EC50 [1, 9] [µM] | EC50 compared with eribulin [5] | Hill Slope ([1]; 24 h CTG, BT-474, Hill fit) | Min Asymptote ([1]; 24 h CTG) | Hill Slope ([1]; 72 h CTG, BT-474, Hill fit) | Min Asymptote ([1]; 72 h CTG) | DoR CTG [1, 6] | log10(EC50) ([1]; 24 h CTG, BT-474, Hill fit) | EC50 ([1]; BT-474 cell line, CellTiter-Glo, read-out: EC50, CTG) [µM] | dose response (SGR vs dose) [2] | response compared with primary lesion model [3] | response compared with primary lesion model [4]
6 | C[C@]12CC[C@@H]3c4ccc(O)cc4C[C@@H](CCCCCCCCC[S+]([O-])CCCC(F)(F)C(F)(F)F)[C@H]3[C@@H]1CC[C@@H]2O (some centres unmarked) [Fulvestrant] |  | 1340 |  |  |  |  |  |  | 0.1608 (2×) and 0.8009 | 0.6 |  |  |  |  | 
7 | CCC(=C(c1ccc(O)cc1)c1ccc(OCCN(C)C)cc1)c1ccccc1 [4HT, 4-hydroxy-Tamoxifen] |  |  | −0.6116 and −0.6471 |  |  | 4.596 | 0.07942 | 3.312 and 3.655 | 1.76E−08 (2×) and 8.28E−08 | 1.0 | −0.736 | 4.2 | strong response |  | 
